In PubChem BioAssay AID2060611 (Molecular Pharmacology Branch, DTP, NCI, 2025):
Values joined by “and” are separate entries in the source; they are usually repeats but may differ in a detail not shown here. Equal entries are not always repeated.

System: 628569-122-R-J1-PDC complex spheroid viability
Assay: Anticancer human tumor 628569-122-R-J1-PDC patient-derived head and neck squamous carcinoma cell line growth inhibition [CLK]
Conditions: for viability, T/C: stronger effect = lower value
Method in brief: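 Multi-cell-type spheroids combined patient-derived tumor cells with HUVEC endothelial cells and human mesenchymal stem cells. Paired agents were dosed in half-log steps down from about clinical Cmax, or from 10 microM where Cmax was unknown.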

[1] = curve of first compound, second compound 0.0316 µM
[2] = curve of first compound, second compound 0.1 µM
[3] = curve of first compound, second compound 0.316 µM
[4] = curve of first compound, second compound 1 µM
[5] = curve of first compound, second compound 3.16 µM
[6] = curve of first compound, second compound 10 µM
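Further: spheroids exposed to agents for seven days before readout.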
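Wherever viability, T/C is given: 100% = DMSO vehicle control viability.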

**Q.** For `CC(=O)O[C@H]1C(=O)[C@@]2(C)[C@H]([C@H](OC(=O)c3ccccc3)[C@]3(O)C[C@H](OC(=O)[C@H](O)[C@@H](NC(=O)c4ccccc4)c4ccccc4)C(C)=C1C3(C)C)[C@]1(OC(C)=O)CO[C@@H]1C[C@@H]2O` + CNC(=O)c1ccc(Nc2nc(OC3CCCC3)c3c(-c4ccc5nc(C)oc5c4)c[nH]c3n2)c(OC)c1, which IC50 [1] is on record?
**A.** < 31.6 nM

**Q.** What about the IC50 [2] of the same compound?
**A.** < 31.6 nM

**Q.** And the IC50 [3]?
**A.** < 31.6 nM

**Q.** What about the IC50 [4] of the same compound?
**A.** < 31.6 nM

**Q.** And the IC50 [5]?
**A.** < 31.6 nM

**Q.** What about the IC50 [6] of the same compound?
**A.** < 31.6 nM

**Q.** And the viability, T/C (second compound 0.0316 µM, first compound 0.0316 µM)?
**A.** 34.6%

**Q.** And the viability, T/C (second compound 0.0316 µM, first compound 0.1 µM)?
**A.** 33.5%

**Q.** What about the viability, T/C (second compound 0.0316 µM, first compound 0.316 µM) of the same compound?
**A.** 36.6%

**Q.** What about the viability, T/C (second compound 0.0316 µM, first compound 1 µM) of the same compound?
**A.** 35.9%

**Q.** What about the viability, T/C (second compound 0.0316 µM, first compound 3.16 µM) of the same compound?
**A.** 36.5%

**Q.** What about the viability, T/C (second compound 0.0316 µM, first compound 10 µM) of the same compound?
**A.** 59%

**Q.** And the viability, T/C (second compound 0.1 µM, first compound 0.0316 µM)?
**A.** 50.4%

**Q.** And the viability, T/C (second compound 0.1 µM, first compound 0.1 µM)?
**A.** 47.4%

**Q.** What about the viability, T/C (second compound 0.1 µM, first compound 0.316 µM) of the same compound?
**A.** 49.6%

**Q.** What about the viability, T/C (second compound 0.1 µM, first compound 1 µM) of the same compound?
**A.** 55.5%

**Q.** What about the viability, T/C (second compound 0.1 µM, first compound 3.16 µM) of the same compound?
**A.** 67.9%

**Q.** What about the viability, T/C (second compound 0.1 µM, first compound 10 µM) of the same compound?
**A.** 68.4%

**Q.** And the viability, T/C (second compound 0.316 µM, first compound 0.0316 µM)?
**A.** 43.1%

**Q.** And the viability, T/C (second compound 0.316 µM, first compound 0.1 µM)?
**A.** 55.3%

**Q.** What about the viability, T/C (second compound 0.316 µM, first compound 0.316 µM) of the same compound?
**A.** 59.7%

**Q.** And the viability, T/C (second compound 0.316 µM, first compound 1 µM)?
**A.** 63.9%

**Q.** And the viability, T/C (second compound 0.316 µM, first compound 3.16 µM)?
**A.** 72.9%

**Q.** What about the viability, T/C (second compound 0.316 µM, first compound 10 µM) of the same compound?
**A.** 72.9%

**Q.** What about the viability, T/C (second compound 1 µM, first compound 0.0316 µM) of the same compound?
**A.** 41.4%

**Q.** And the viability, T/C (second compound 1 µM, first compound 0.1 µM)?
**A.** 53%

**Q.** What about the viability, T/C (second compound 1 µM, first compound 0.316 µM) of the same compound?
**A.** 55.2%

**Q.** And the viability, T/C (second compound 1 µM, first compound 1 µM)?
**A.** 57.6%

**Q.** And the viability, T/C (second compound 1 µM, first compound 3.16 µM)?
**A.** 57.9%

**Q.** What about the viability, T/C (second compound 1 µM, first compound 10 µM) of the same compound?
**A.** 68.5%

**Q.** What about the viability, T/C (second compound 3.16 µM, first compound 0.0316 µM) of the same compound?
**A.** 44.8%

**Q.** And the viability, T/C (second compound 3.16 µM, first compound 0.1 µM)?
**A.** 51.6%

**Q.** And the viability, T/C (second compound 3.16 µM, first compound 0.316 µM)?
**A.** 56.8%

**Q.** What about the viability, T/C (second compound 3.16 µM, first compound 1 µM) of the same compound?
**A.** 56.6%

**Q.** What about the viability, T/C (second compound 3.16 µM, first compound 3.16 µM) of the same compound?
**A.** 60.9%

**Q.** And the viability, T/C (second compound 3.16 µM, first compound 10 µM)?
**A.** 64.7%

**Q.** And the viability, T/C (second compound 10 µM, first compound 0.0316 µM)?
**A.** 41.2%

**Q.** And the viability, T/C (second compound 10 µM, first compound 0.1 µM)?
**A.** 47%

**Q.** What about the viability, T/C (second compound 10 µM, first compound 0.316 µM) of the same compound?
**A.** 55.3%

**Q.** What about the viability, T/C (second compound 10 µM, first compound 1 µM) of the same compound?
**A.** 64.2%

**Q.** And the viability, T/C (second compound 10 µM, first compound 3.16 µM)?
**A.** 65%

**Q.** What about the viability, T/C (second compound 10 µM, first compound 10 µM) of the same compound?
**A.** 69.9%

**Q.** Which results are given for `O=C(c1cc(Cc2n[nH]c(=O)c3ccccc23)ccc1F)N1CCN(C(=O)C2CC2)CC1`?
**A.** viability, T/C (compound 0.0316 µM): 86.8% and 91.2%; viability, T/C (compound 0.1 µM): 96.3% and 91.3%; viability, T/C (compound 0.316 µM): 90.6% and 110%; viability, T/C (compound 1 µM): 88.7% and 91.9%; viability, T/C (compound 3.16 µM): 74.6% and 93.7%; viability, T/C (compound 10 µM): 55.2% and 51.5%; IC50 (curve of compound): > 10000 nM

**Q.** What does the source list for `CC(C)CC(NC(=O)C(Cc1ccccc1)NC(=O)c1cnccn1)B(O)O` (stereo not drawn) + CN1CCN(c2cc(C(=O)Nc3cc4cc(-c5cnn(C)c5)ccc4cn3)ccn2)CC1?
**A.** IC50 [1]: 4.41 nM; IC50 [2]: 1.68 nM; IC50 [3]: < 0.949 nM; IC50 [4]: < 0.949 nM; IC50 [5]: < 0.949 nM; IC50 [6]: < 0.949 nM; viability, T/C (second compound 0.0316 µM, first compound 0.000949 µM): 83.3%; viability, T/C (second compound 0.0316 µM, first compound 0.003 µM): 70.2%; viability, T/C (second compound 0.0316 µM, first compound 0.00949 µM): 9.85%; viability, T/C (second compound 0.0316 µM, first compound 0.03 µM): 8.4%; viability, T/C (second compound 0.0316 µM, first compound 0.0949 µM): 6.4%; viability, T/C (second compound 0.0316 µM, first compound 0.3 µM): 4.25%; viability, T/C (second compound 0.1 µM, first compound 0.000949 µM): 62.6%; viability, T/C (second compound 0.1 µM, first compound 0.003 µM): 37.3%; viability, T/C (second compound 0.1 µM, first compound 0.00949 µM): 7.61%; viability, T/C (second compound 0.1 µM, first compound 0.03 µM): 6.34%; viability, T/C (second compound 0.1 µM, first compound 0.0949 µM): 6.04%; viability, T/C (second compound 0.1 µM, first compound 0.3 µM): 5.02%; viability, T/C (second compound 0.316 µM, first compound 0.000949 µM): 37.8%; viability, T/C (second compound 0.316 µM, first compound 0.003 µM): 4.9%; viability, T/C (second compound 0.316 µM, first compound 0.00949 µM): 10.6%; viability, T/C (second compound 0.316 µM, first compound 0.03 µM): 4.39%; viability, T/C (second compound 0.316 µM, first compound 0.0949 µM): 4.89%; viability, T/C (second compound 0.316 µM, first compound 0.3 µM): 2.72%; viability, T/C (second compound 1 µM, first compound 0.000949 µM): 9.15%; viability, T/C (second compound 1 µM, first compound 0.003 µM): 8.04%; viability, T/C (second compound 1 µM, first compound 0.00949 µM): 4.76%; viability, T/C (second compound 1 µM, first compound 0.03 µM): 6.26%; viability, T/C (second compound 1 µM, first compound 0.0949 µM): 7.32%; viability, T/C (second compound 1 µM, first compound 0.3 µM): 5.71%; viability, T/C (second compound 3.16 µM, first compound 0.000949 µM): 6.67%; viability, T/C (second compound 3.16 µM, first compound 0.003 µM): 6.69%; viability, T/C (second compound 3.16 µM, first compound 0.00949 µM): 5.84%; viability, T/C (second compound 3.16 µM, first compound 0.03 µM): 5.55%; viability, T/C (second compound 3.16 µM, first compound 0.0949 µM): 5.83%; viability, T/C (second compound 3.16 µM, first compound 0.3 µM): 4.09%; viability, T/C (second compound 10 µM, first compound 0.000949 µM): 8.8%; viability, T/C (second compound 10 µM, first compound 0.003 µM): 1.66%; viability, T/C (second compound 10 µM, first compound 0.00949 µM): 2.36%; viability, T/C (second compound 10 µM, first compound 0.03 µM): 1.91%; viability, T/C (second compound 10 µM, first compound 0.0949 µM): 4.23%; viability, T/C (second compound 10 µM, first compound 0.3 µM): 0.93%

**Q.** Which results are given for `C=CC(=O)Nc1cc(Nc2nccc(-c3cn(C)c4ccccc34)n2)c(OC)cc1N(C)CCN(C)C`?
**A.** viability, T/C (compound 0.000949 µM): 81.8% and 77.8%; viability, T/C (compound 0.003 µM): 105% and 86.5%; viability, T/C (compound 0.00949 µM): 92.6% and 78.3%; viability, T/C (compound 0.03 µM): 73.7% and 73.6%; viability, T/C (compound 0.0949 µM): 98.9% and 71.4%; viability, T/C (compound 0.3 µM): 71.7% and 55.5%; IC50 (curve of compound): > 300 nM
